{"source": "patent US10045961B2", "about": "“Use of sting agonists to treat chronic hepatitis B virus infection” (DREXEL UNIVERSITY, priority 2013, dated 2018)", "key": {"[1]": {"system": "HBV DNA replication in AML12HBV10 cells", "test": "Indirect treatment: conditioned media from treated RAW264.7 macrophages applied to AML12HBV10 cells, HBV core DNA by Southern blot", "details": "AML12HBV10 cells treated 2 days with 50% conditioned media from RAW264.7 cells treated 12 h", "quoted_text": "(§4) The assay system was first validated with known TLR agonists. […] Twenty-four hours later, the cells were treated with the indicated concentrations of TLR agonists (direct treatment) (FIG. 1B). […] Cytoplasmic HBV core DNA was analyzed by Southern blot hybridization two days post treatment.\n(§5) AMLHBV10 cells, grown in Dulbecco's Modification of Eagle's Medium (DMEM)/F12 medium with 1 μg/ml of tetracycline were seeded in 12-well plate at density of 1×10^5 cell/well for 1 day in absence of tetracycline to release HBV replication. […] HBV core DNA was extracted from AML12HBV10 cells 2 days post treatment, and detected by Southern blot assay.\nIntracellular HBV RNA was determined by Northern blot (ribosomal RNA served as loading control). HBV core protein was determined by Western blot assay using antibody against carboxyl terminal 14 amino acid of HBV core protein (β-actin served as loading control). HBV nucleocapsids were examined by a particle gel assay to detect both the intact nucleocapsids and capsid-associated HBV DNA. Encapsidated HBV (core DNA) replication intermediates (RC, DSL and SS) were determined by Southern blot assay.\nUsing the assay system described above, 75 flavonoids in MicroSource compound collection (MicroSource Discovery Systems, Inc.) were tested again. […] Cytoplasmic HBV core DNA was analyzed by Southern blot hybridization. […] AML12HBV10 cells treated with the indicated concentrations of mouse alpha IFN (mIFN-α) for 2 days served as positive controls. Cytoplasmic HBV core DNA was analyzed by Southern blot hybridization (FIG. 3D)."}, "[2]": {"system": "HBV DNA replication in AML12HBV10 cells", "test": "Direct treatment of AML12HBV10 cells, cytoplasmic HBV core DNA by Southern blot", "details": "for HBV DNA replication, direct treatment: AML12HBV10 cells treated directly for 2 days, cytoplasmic HBV core DNA; for HBV DNA replication, cytokine treatment: AML12HBV10 cells treated for 4 days", "text": "AML12HBV10, an immortalized murine hepatocyte (AML12)-derived cell line supporting high level of HBV replication in a tetracycline (tet)-inducible manner, was maintained as described in Xu C, et al. Interferons accelerate decay of replication-competent nucleocapsids of hepatitis B virus.\nHBV core DNA extraction from AML12HBV10 cells as well as analyses by Southern blot hybridization and real-time PCR assays were as described previously in Xu C, et al. Interferons accelerate decay of replication-competent nucleocapsids of hepatitis B virus. […] Total cellular RNA was extracted using TRIzol reagent (Invitrogen). HBV RNA was analyzed by Northern blot hybridization with an α-^32P-UTP-labeled full-length minus-stranded RNA probe. HBV capsid and capsid associated viral DNA was analyzed by a native agarose gel electrophoresis followed by transfer to a nitrocellulose membrane. HBV capsids were detected by probing the membrane with an antibody against HBV core protein followed by visualizing with LI-COR Odyssey system. Capsid-associated DNA was detected by hybridization with radioactively labeled HBV riboprobe.\nas §4, §5\nCytoplasmic HBV core DNA was analyzed by Southern blot hybridization. NT controls were as described in FIG. 1B (FIG. 3B). […] AML12HBV10 cells treated with the indicated concentrations of mouse alpha IFN (mIFN-α) for 2 days served as positive controls. Cytoplasmic HBV core DNA was analyzed by Southern blot hybridization (FIG. 3D)."}, "MAPK pathways": {"system": "MAPK pathways", "test": "Western blot of MAPK pathway activation (phosphorylated p38α, JNK, ERK) in RAW264.7 cells", "type": "cell-based, mouse", "description": "(§1) Total cellular proteins were fractioned by SDS-PAGE and transferred onto PVDF membranes. Total and phosphorylated STING, TBK1, p38, JNK and Erk as well as IkB-α were detected by Western blot assays with their specific antibodies. β-actin served as a loading control."}, "HBV": {"system": "HBV", "test": "HBV DNA hydrodynamic mouse model, intrahepatic HBV core DNA", "type": "in vivo, NOD/SCID mice", "details": "single 25 mg/kg intraperitoneal dose, 24 h after treatment", "experimental": "(§2) Ten-week-old female NOD/SCID mice were purchased from Vital River Laboratory Animal Technology Co. Ltd. All experiments were conducted with Institutional Animal Care and Use Committee approval. To establish HBV hydrodynamic model, 13.5 μg of plasmid pTmcsHBV1.3 expressing 1.3mer HBV genome and 4.5 μg of pCMV-SB expressing the Sleeping Beauty transposase were injected through tail vein, according to procedures previously described. To test the efficacy of DMXAA in vivo, 7 days post injection, mice were treated with either DMXAA (in PBS with 7.5% sodium Bicarbonate) at 25 mg/kg or vehicle, via intraperitoneal injection. Mice were sacrificed 24 h after treatment. Intrahepatic HBV core DNA was extracted and quantified by using a real-time PCR assay. Intrahepatic total RNA was extracted and the interferon stimulated genes (ISGs) OAS1b and viperin mRNAs were determined by real-time RT-PCR assay. Weight of individual mouse was monitored before and 24 h after the treatment.\n(§3) To further validate the antiviral effects of DMXAA in vivo, NOD/SCID mice were hydrodynamically injected with HBV 1.3mer plasmid to establish HBV replication in hepatocytes. […] (FIG. 9A) Twenty-four hours post treatment, HBV core DNA was extracted from livers and analyzed by a real-time PCR assay. […] (FIGS. 9B and 9C) Total RNA was extracted from livers and mRNA levels of OAS1b and viperin were analyzed by real-time RT-PCR assay. […]"}, "[3]": {"system": "HBV DNA in AML12HBV10 cells", "test": "Blockade of type I IFN receptor (IFNAR1 antibody) in AML12HBV10 cells, HBV DNA by real-time PCR", "type": "cell-based, hepatitis B virus", "details": "AML12HBV10 cells pre-incubated with 10 μg/ml IFNAR1 antibody; mIFN-α directly or conditioned media from DMXAA-treated RAW264.7 cells", "experimental": "AML12HBV10 cells cultured in absence of tetracycline for 1 day, were incubated either with or without 10 μg/ml of a monoclonal antibody against type I interferon receptor IFNAR1 (Ab INFAR) at 37° C. for 1 h, followed by treatment for 2 days with the indicated concentrations of mIFN-α (FIG. 7A) or 50% of conditioned media harvested from RAW264.7 cells (treated with the indicated concentrations of DMXAA for 12 h) (FIG. 7B). Cytolplasmic HBV DNA were quantified by a real-time PCR assay and data (mean±standard deviation, N=4) were presented as percentage of mock-treated controls (NT). AML12HBV10 cells cultured in the absence of tetracycline were treated with the indicated concentrations of IL-1, IL-6 or TNF-α for 4 days (FIG. 7C). Cytoplasmic HBV core DNA was analyzed by Southern blot hybridization."}, "TBK1": {"system": "TBK1", "test": "Western blot of TBK1 phosphorylation in RAW264.7 cells", "type": "cell-based, mouse", "details": "125 μM DMXAA", "description": "as §1"}, "[4]": {"system": "interferon stimulated genes (ISGs) OAS1b and viperin", "test": "HBV hydrodynamic mouse model, intrahepatic ISG mRNA (OAS1b, viperin)", "type": "in vivo, NOD/SCID mice", "details": "single 25 mg/kg intraperitoneal dose, 24 h", "experimental": "as §2, §3"}, "[5]": {"system": "proinflammatory cytokines (IL6, IL1, IL10, TNF-α, IL12) and chemokine CXCL10", "test": "qRT-PCR of proinflammatory cytokine and chemokine mRNA in RAW264.7 cells", "quoted_text": "(§6) For cytokine gene expression analysis, total RNA was extracted using TRIzol reagent. cDNAs were synthesized using SuperScript III (Invitrogen). Quantitative real-time PCR analysis was performed using a LightCycler 480 II (Roche).\n(§7) The amounts of mRNA specifying the specific cytokines and chemokines were quantified by real-time RT-PCR assays. Data (mean±standard deviation, N=3) were expressed as fold induction of gene expression relative to untreated controls."}, "[6]": {"test": "HBV hydrodynamic mouse model, body weight", "type": "in vivo, NOD/SCID mice", "details": "single 25 mg/kg intraperitoneal dose, 24 h; data not shown", "experimental": "as §2"}, "[7]": {"system": "HBV DNA in AML12HBV10 cells", "test": "Conditioned media from shSTING RAW264.7 cells on AML12HBV10 cells, HBV core DNA by real time PCR", "type": "cell-based, hepatitis B virus", "details": "2 days"}, "IFN-β mRNA": {"system": "IFN-β mRNA", "test": "qRT-PCR of IFN-β mRNA in RAW264.7 cells", "quoted_text": "as §6, §7"}, "[8]": {"system": "HBV replication in human hepatoma cells (HepDES19)", "test": "Conditioned medium from DMXAA-treated THP-1hSTINGS162 cells on DES19 human hepatoma cells, HBV core DNA by real time PCR", "details": "media from THP1-hSTING/S162 cells treated 12 hrs, 6 days", "quoted_text": "Additionally, THP-1hSTINGS162 cells were treated with DMXAA for 12 hrs, conditioned medium with indicated dilution were then transferred to DES19, a human hepatoma cell line harboring HBV replication. HBV core DNA was extracted 6 days post treatment, and quantified by real time PCR assay. HBV DNA expression levels (means±standard deviations, N=3) were expressed as percentage relative to mock treated control. DES19 cells treated with IFN-α served as positive control (FIG. 10B)."}, "IκBα": {"system": "IκBα", "test": "Western blot of IκBα degradation in RAW264.7 cells", "type": "cell-based, mouse", "details": "125 μM DMXAA", "description": "as §1"}, "HBV capsids": {"system": "HBV capsids", "test": "HBV core protein, capsids and capsid-associated DNA in AML12HBV10 cells after indirect treatment", "type": "cell-based, hepatitis B virus", "details": "2 days; for amount of HBV capsid protein: Western blot", "experimental": "HBV core DNA extraction from AML12HBV10 cells as well as analyses by Southern blot hybridization and real-time PCR assays were as described previously in Xu C, et al. Interferons accelerate decay of replication-competent nucleocapsids of hepatitis B virus. J Virol 2010; 84:9332-40, and Campagna M R, et al. Sulfamoylbenzamide Derivatives Inhibit the Assembly of Hepatitis B Virus Nucleocapsids. J Virol 2013. Total cellular RNA was extracted using TRIzol reagent (Invitrogen). HBV RNA was analyzed by Northern blot hybridization with an α-^32P-UTP-labeled full-length minus-stranded RNA probe. HBV capsid and capsid associated viral DNA was analyzed by a native agarose gel electrophoresis followed by transfer to a nitrocellulose membrane. HBV capsids were detected by probing the membrane with an antibody against HBV core protein followed by visualizing with LI-COR Odyssey system. Capsid-associated DNA was detected by hybridization with radioactively labeled HBV riboprobe.\nIn order to map the HBV replication step(s) being inhibited by DMXAA-induced antiviral response in macrophages, AML12HBV10 cells were treated with conditioned media harvested from TLR agonist- or DMXAA-treated RAW264.7 cells. […]. The AML12HBV10 cells were harvested 2 days after treatment for the following analysis: (FIG. 4A) Intracellular HBV RNA was determined by Northern blot (pgRNA, pre-genomic RNA, envRNAs, viral mRNAs specifying envelope proteins. 18S ribosomal RNA (rRNA) served as loading controls); (FIG. 4B) HBV core protein was determined by Western blot assay using total cell lysate (β-actin served as a loading control); the amounts of HBV capsids (FIG. 4C) and capsid-associated HBV DNA (FIG. 4D) were determined by a native agarose gel assay; and (FIG. 4E) Cytoplasmic HBV core DNA was determined by Southern blot hybridization."}}, "note": "“Also recorded” adds a separate entry of the source."}
{"molecule": "O=c1cc(-c2ccccc2O)oc2cc(O)ccc12", "note": "[7, 2′-dihydroxyflavone]", "values": [{"measurement": "HBV DNA replication, indirect treatment", "setting": "[1]", "result": "indirect, but not direct, antiviral activity against HBV"}, {"measurement": "HBV DNA replication, indirect treatment", "setting": "[1]; listed as 7, 2′ dihydroxyflavone", "result": "induces antiviral activity against HBV"}, {"measurement": "HBV DNA replication, direct treatment", "setting": "[2]", "result": "not direct"}]}
{"molecule": "Cc1ccc2c(=O)c3cccc(CC(=O)O)c3oc2c1C", "note": "[DMXAA, 5,6-dimethylxanthenone-4-acetic acid]", "values": [{"measurement": "time at which activation of MAPK pathways (phosphorylated p38α, JNK, ERK) was evident", "setting": "MAPK pathways", "result": 90, "unit": "min"}, {"measurement": "reduction of intrahepatic HBV core DNA versus vehicle", "setting": "HBV", "result": 1.3, "unit": "log"}, {"measurement": "antiviral response after blockade of type I IFN receptor", "setting": "[3]", "result": "significantly attenuated"}, {"measurement": "phosphorylation of TBK1", "setting": "TBK1", "result": "efficiently induced phosphorylation of TBK1"}, {"measurement": "OAS1b expression in liver", "setting": "[4]", "result": "significantly induced"}, {"measurement": "viperin expression in liver", "setting": "[4]", "result": "significantly induced"}, {"measurement": "HBV DNA replication, indirect treatment", "setting": "[1]", "result": "strong indirect anti-HBV activity; also recorded: inhibits HBV DNA replication in the mouse hepatocytes in a dose-dependent manner"}, {"measurement": "time of peak of inflammatory cytokine response (IL-1 and IL-10)", "setting": "[5]", "result": "≥ 6", "unit": "h"}, {"measurement": "IFN and inflammatory cytokine response profile", "setting": "[5]; qRT-PCR, DMXAA compared with TLR agonists", "result": "predominant IFN response, but less vigorous inflammatory cytokine response"}, {"measurement": "HBV DNA replication, direct treatment", "setting": "[2]", "result": "does not inhibit HBV DNA replication"}, {"measurement": "reduction of average body weight", "setting": "[6]", "result": "approximately 8%"}, {"measurement": "antiviral activity against HBV with STING knockdown cells", "setting": "[7]", "result": "significantly attenuated"}, {"measurement": "time of peak of IFN-β response", "setting": "IFN-β mRNA", "result": 2, "unit": "h"}, {"measurement": "IFN-β mRNA expression relative to TLR1/2, TLR3 or TLR7 agonists", "setting": "IFN-β mRNA; 125 μM, 2 h post treatment", "result": "approximately 100 fold"}, {"measurement": "HBV replication in human hepatoma cells, conditioned media", "setting": "[8]", "result": "efficiently suppressed HBV replication"}, {"measurement": "degradation of IκBα", "setting": "IκBα", "result": "induced degradation of IκBα"}, {"measurement": "amounts of HBV DNA replication intermediates", "setting": "HBV capsids", "result": "decreased"}, {"measurement": "amount of HBV capsid protein", "setting": "HBV capsids", "result": "reduced the amounts of HBV capsid protein"}]}
{"molecule": "CCNCc1nc2c(N)nc3ccccc3c2n1CC(C)(C)O", "note": "[gardiquimod]", "values": [{"measurement": "HBV DNA replication, indirect treatment", "setting": "[1]", "result": "potently inhibited HBV DNA replication"}, {"measurement": "HBV DNA replication, direct treatment", "setting": "[2]", "result": "did not apparently inhibit HBV DNA replication"}]}
{"molecule": "CCN(CC)CCOc1ccc2c(c1)C(=O)c1cc(OCCN(CC)CC)ccc1-2", "note": "[tilorine, 2,7-Bis[2-(diethylamino)ethoxy]-9-fluorenone]", "values": [{"measurement": "HBV DNA replication, indirect treatment", "setting": "[1]", "result": "neither directly nor indirectly inhibited HBV replication"}, {"measurement": "HBV DNA replication, direct treatment", "setting": "[2]", "result": "neither directly nor indirectly inhibited HBV replication"}]}
{"molecule": "IFN-α", "values": [{"measurement": "antiviral response after blockade of type I IFN receptor", "setting": "[3]", "result": "significantly reduced"}]}
{"molecule": "Pam3CSK4", "values": [{"measurement": "HBV DNA replication, indirect treatment", "setting": "[1]", "result": "potently inhibited HBV DNA replication"}, {"measurement": "HBV DNA replication, direct treatment", "setting": "[2]", "result": "did not apparently inhibit HBV DNA replication"}, {"measurement": "amount of HBV capsid protein", "setting": "HBV capsids", "result": "to lesser extents"}]}
{"molecule": "TNF-α", "values": [{"measurement": "HBV DNA replication, cytokine treatment", "setting": "[2]", "result": "inhibited HBV DNA replication"}]}
{"molecule": "poly I:C", "values": [{"measurement": "HBV DNA replication, indirect treatment", "setting": "[1]", "result": "potently inhibited HBV DNA replication"}, {"measurement": "HBV DNA replication, direct treatment", "setting": "[2]", "result": "did not apparently inhibit HBV DNA replication"}, {"measurement": "amount of HBV capsid protein", "setting": "HBV capsids", "result": "to lesser extents"}]}
{"molecule": "IL-6: Recombinant murine IL-6 from PBL InterferonSource (protein, UniProt P08505 25-211, looked up) Interleukin-6: FPTSQVRRGDFTEDTTPNRPVYTTSQVGGLITHVLWEIVEMRKELCNGNSDCMNNDDALAENNLKLPEIQRNDGCYQTGYNQEICLLKISSGLLEYHSYLEYMKNNLKDNKKDKARVLQRDTETLIHIFNQEVKDLHKIVLPTPISNALLTDKLESQKEWLRTKTIQFILKSLEEFLKVTLRSTRQT", "values": [{"measurement": "HBV DNA replication, cytokine treatment", "setting": "[2]", "result": "only TNF-α inhibited HBV DNA replication"}]}
